Data from patent US9695155B2, “Herbicidal substituted pyrimidinyloxy benzene compounds” (E. I. DU PONT DE NEMOURS AND COMPANY, priority 2013, dated 2017).

Assays:
wheat = assay: Test A postemergence; assay type: in vivo, Triticum aestivum; details: 0 to 100 scale where 0 is no effect and 100 is complete control
How it was run: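 Compounds in non-phytotoxic solvent with surfactant applied as soil spray preemergence, or postemergence to plants 2-10 cm at one- to two-leaf stage, in loam/sand. After approximately 10 days in greenhouse, injury rated visually versus untreated controls, 0 (no effect) to 100 (complete control).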

sedge, umbrella = assay: Test B flooded paddy test; assay type: in vivo, Cyperus difformis; details: Flood, 250 g ai/ha; 0 to 100 scale where 0 is no effect and 100 is complete control
How it was run: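 2-leaf stage plants; pots flooded to 3 cm, compound added to paddy water, depth maintained. Greenhouse 13–15 d. Visual rating vs untreated controls, 0 (no effect) to 100 (complete control); dash = no result.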

blackgrass = assay: Test C preemergence; assay type: in vivo, Alopecurus myosuroides; details: for Blackgrass plant response rating: preemergence; for Plant response rating, Blackgrass: Preemergence, 31 g ai/ha, scale 0 to 100, 0 no effect, 100 complete control
How it was run: (§1)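 Visual injury score versus untreated controls, 0 = no effect, 100 = complete control, taken 13 to 15 days after treatment in the greenhouse. Pre-emergence pots held loam/sand; post-emergence plants grew in sphagnum peat/vermiculite mix and were sprayed at the 1- to 4-leaf stage.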

corn = assay: Test C preemergence; assay type: in vivo, Zea mays; details: for Corn plant response rating: preemergence; for Plant response rating, Corn: Preemergence, 31 g ai/ha, scale 0 to 100, 0 no effect, 100 complete control
How it was run: as §1

pigweed = assay: Test C preemergence; assay type: in vivo, Amaranthus retroflexus; details: for Pigweed plant response rating: preemergence; for Plant response rating, Pigweed: Preemergence, 31 g ai/ha, scale 0 to 100, 0 no effect, 100 complete control
How it was run: as §1

velvetleaf [1] = assay: Test C preemergence; assay type: in vivo, Abutilon theophrasti; details: for Velvetleaf plant response rating: preemergence; for Plant response rating, Velvetleaf: Preemergence, 31 g ai/ha, scale 0 to 100, 0 no effect, 100 complete control
How it was run: as §1

Italian ryegrass = assay: Test C postemergence; assay type: in vivo, Lolium multiflorum; details: for Plant response rating (0 to 100), Ryegrass, Italian: 125 g ai/ha, postemergence; for Plant response rating, Ryegrass, Italian: Postemergence, scale 0 to 100 (0 no effect, 100 complete control)
How it was run: as §1

wheat, winter = assay: Test C postemergence; assay type: in vivo, Triticum aestivum; details: for Plant response rating (0 to 100), Wheat: 125 g ai/ha, postemergence; for Plant response rating, Wheat: Postemergence, scale 0 to 100 (0 no effect, 100 complete control)
How it was run: as §1

galium = assay: Test C postemergence; assay type: in vivo, Galium aparine; details: for Galium plant response rating: 16 g ai/ha, visual rating; for Galium plant response rating / Plant response rating (0 to 100), Galium: postemergence; for Galium plant response rating / Plant response rating, Galium: scale 0 to 100 (0 no effect, 100 complete control); for Plant response rating (0 to 100), Galium: 125 g ai/ha; for Plant response rating, Galium: Postemergence
How it was run: as §1

lambsquarters = assay: Test C postemergence; assay type: in vivo, Chenopodium album; details: for Plant response rating (0 to 100), Lambsquarters: 125 g ai/ha, postemergence; for Plant response rating, Lambsquarters: Postemergence, scale 0 to 100 (0 no effect, 100 complete control)
How it was run: as §1

barnyardgrass = assay: Test C postemergence; assay type: in vivo, Echinochloa crus-galli; details: for Barnyardgrass plant response rating: 16 g ai/ha, visual rating; for Barnyardgrass plant response rating / Plant response rating (0 to 100), Barnyardgrass: postemergence; for Barnyardgrass plant response rating / Plant response rating, Barnyardgrass: scale 0 to 100 (0 no effect, 100 complete control); for Plant response rating (0 to 100), Barnyardgrass: 125 g ai/ha; for Plant response rating, Barnyardgrass: Postemergence
How it was run: as §1

oilseed rape = assay: Test C postemergence; assay type: in vivo, Brassica napus; details: for Plant response rating (0 to 100), Oilseed Rape: 125 g ai/ha, postemergence; for Plant response rating, Oilseed Rape: Postemergence, scale 0 to 100 (0 no effect, 100 complete control)
How it was run: as §1

velvetleaf [2] = assay: Test C postemergence; assay type: in vivo, Abutilon theophrasti; details: for Plant response rating (0 to 100), Velvetleaf: 125 g ai/ha, postemergence; for Plant response rating, Velvetleaf: Postemergence, scale 0 to 100 (0 no effect, 100 complete control)
How it was run: as §1

[3] = 16 g ai/ha, scale 0 to 100 (0 no effect, 100 complete control)
[4] = 62 g ai/ha, scale 0 (no effect) to 100 (complete control)
[5] = 125 g ai/ha, scale 0 (no effect) to 100 (complete control)

CCOc1cnn(-c2c(C#N)cccc2Oc2ncc(F)cn2)c1 [Compound 89]
Plant response rating, Wheat (wheat; 125 g ai/ha): 20
Plant response rating, Wheat (wheat; 500 g ai/ha): 70
Plant response rating, Sedge, Umbrella (sedge, umbrella): 85
Blackgrass plant response rating (blackgrass; [3]): 0
Blackgrass plant response rating (blackgrass; [4]): 5
Blackgrass plant response rating (blackgrass; [5]): 50
Plant response rating, Blackgrass (blackgrass): 0
Corn plant response rating (corn; [3]): 0
Corn plant response rating (corn; [4]): 0
Corn plant response rating (corn; [5]): 5
Plant response rating, Corn (corn): 0
Pigweed plant response rating (pigweed; [3]): 55
Pigweed plant response rating (pigweed; [4]): 100
Pigweed plant response rating (pigweed; [5]): 100
Plant response rating, Pigweed (pigweed): 90
Velvetleaf plant response rating (velvetleaf [1]; [3]): 20
Velvetleaf plant response rating (velvetleaf [1]; [4]): 100
Velvetleaf plant response rating (velvetleaf [1]; [5]): 100
Plant response rating, Velvetleaf (velvetleaf [1]): 70
Plant response rating (0 to 100), Ryegrass, Italian (Italian ryegrass): 5
Plant response rating, Ryegrass, Italian (Italian ryegrass; 31 g ai/ha, 13 to 15 days): 0
Plant response rating, Ryegrass, Italian (Italian ryegrass; 62 g ai/ha): 5
Plant response rating (0 to 100), Wheat (wheat, winter): 5
Plant response rating, Wheat (wheat, winter; 31 g ai/ha, 13 to 15 days): 0
Plant response rating, Wheat (wheat, winter; 62 g ai/ha): 0
Galium plant response rating (galium; 13 to 15 days): 45
Plant response rating (0 to 100), Galium (galium): 55
Plant response rating, Galium (galium; 31 g ai/ha, 13 to 15 days): 40
Plant response rating, Galium (galium; 62 g ai/ha): 50
Plant response rating (0 to 100), Lambsquarters (lambsquarters): 55
Plant response rating, Lambsquarters (lambsquarters; 31 g ai/ha, 13 to 15 days): 30
Plant response rating, Lambsquarters (lambsquarters; 62 g ai/ha): 65
Barnyardgrass plant response rating (barnyardgrass; 13 to 15 days): 0
Plant response rating (0 to 100), Barnyardgrass (barnyardgrass): 5
Plant response rating, Barnyardgrass (barnyardgrass; 31 g ai/ha, 13 to 15 days): 5
Plant response rating, Barnyardgrass (barnyardgrass; 62 g ai/ha): 5
Plant response rating (0 to 100), Oilseed Rape (oilseed rape): 60
Plant response rating, Oilseed Rape (oilseed rape; 31 g ai/ha, 13 to 15 days): 25
Plant response rating, Oilseed Rape (oilseed rape; 62 g ai/ha): 55
Plant response rating (0 to 100), Velvetleaf (velvetleaf [2]): 40
Plant response rating, Velvetleaf (velvetleaf [2]; 31 g ai/ha, 13 to 15 days): 15
Plant response rating, Velvetleaf (velvetleaf [2]; 62 g ai/ha): 25

FCc1cccc(Oc2ncc(Cl)cn2)c1-n1cc(Br)cn1 [Compound 83]
Plant response rating, Wheat (wheat; 125 g ai/ha): 0
Plant response rating, Wheat (wheat; 500 g ai/ha): 60
Plant response rating, Sedge, Umbrella (sedge, umbrella): 45
Blackgrass plant response rating (blackgrass; [3]): 0
Blackgrass plant response rating (blackgrass; [4]): 90
Blackgrass plant response rating (blackgrass; [5]): 85
Plant response rating, Blackgrass (blackgrass): 5
Corn plant response rating (corn; [3]): 0
Corn plant response rating (corn; [4]): 0
Corn plant response rating (corn; [5]): 15
Plant response rating, Corn (corn): 0
Pigweed plant response rating (pigweed; [3]): 85
Pigweed plant response rating (pigweed; [4]): 100
Pigweed plant response rating (pigweed; [5]): 100
Plant response rating, Pigweed (pigweed): 100
Velvetleaf plant response rating (velvetleaf [1]; [3]): 60
Velvetleaf plant response rating (velvetleaf [1]; [4]): 100
Velvetleaf plant response rating (velvetleaf [1]; [5]): 100
Plant response rating, Velvetleaf (velvetleaf [1]): 100
Plant response rating (0 to 100), Ryegrass, Italian (Italian ryegrass): 5
Plant response rating, Ryegrass, Italian (Italian ryegrass; 31 g ai/ha, 13 to 15 days): 0
Plant response rating, Ryegrass, Italian (Italian ryegrass; 62 g ai/ha): 5
Plant response rating (0 to 100), Wheat (wheat, winter): 5
Plant response rating, Wheat (wheat, winter; 31 g ai/ha, 13 to 15 days): 0
Plant response rating, Wheat (wheat, winter; 62 g ai/ha): 0
Galium plant response rating (galium; 13 to 15 days): 50
Plant response rating (0 to 100), Galium (galium): 60
Plant response rating, Galium (galium; 31 g ai/ha, 13 to 15 days): 65
Plant response rating, Galium (galium; 62 g ai/ha): 70
Plant response rating (0 to 100), Lambsquarters (lambsquarters): 80
Plant response rating, Lambsquarters (lambsquarters; 31 g ai/ha, 13 to 15 days): 80
Plant response rating, Lambsquarters (lambsquarters; 62 g ai/ha): 60
Barnyardgrass plant response rating (barnyardgrass; 13 to 15 days): 5
Plant response rating (0 to 100), Barnyardgrass (barnyardgrass): 5
Plant response rating, Barnyardgrass (barnyardgrass; 31 g ai/ha, 13 to 15 days): 5
Plant response rating, Barnyardgrass (barnyardgrass; 62 g ai/ha): 5
Plant response rating (0 to 100), Oilseed Rape (oilseed rape): 80
Plant response rating, Oilseed Rape (oilseed rape; 31 g ai/ha, 13 to 15 days): 50
Plant response rating, Oilseed Rape (oilseed rape; 62 g ai/ha): 55
Plant response rating (0 to 100), Velvetleaf (velvetleaf [2]): 65
Plant response rating, Velvetleaf (velvetleaf [2]; 31 g ai/ha, 13 to 15 days): 55
Plant response rating, Velvetleaf (velvetleaf [2]; 62 g ai/ha): 50
